{"source": "paper PMC9021288", "about": "(Nature Communications, 2022)", "key": {"P. falciparum 3D7": {"tested_on": "P. falciparum 3D7", "test": "Parasite reduction rate (PRR) in vitro killing rate assay", "format": "cell-based, Plasmodium falciparum", "procedure": "The antimalarial killing rate was determined by GlaxoSmithKline (GSK, Tres Cantos, Madrid, Spain) as described previously. […] The number of viable parasites was determined on day 21 and 28 by counting the wells with parasite growth."}, "[1]": {"tested_on": "P. falciparum NF54 sporozoites / liver stages", "test": "Liver-stage development in human primary hepatocytes", "format": "cell-based, Plasmodium falciparum", "design": "infected hepatocytes (Rep1, Rep2): unit not given here", "procedure": "To assess parasite development in hepatocytes, cryopreserved human primary hepatocytes (Tebu-Bio lot: HC10-10) were thawed according to the manufacturer’s protocol and seeded (50,000 cells per well) in collagen-coated 96-well plates (Greiner). Cells were cultured at 37 °C in 5% CO2 and the medium was refreshed after 3 h and 24 h. Salivary glands from Anopheles stephensi mosquitoes were dissected to obtain NF54 sporozoites that were added (60,000 per well) to hepatocytes 48 h post-thawing. Plates were spun down and sporozoites were incubated with hepatocytes for 3 h. Subsequently, sporozoites were aspirated and compounds diluted in hepatocyte medium, were added to the hepatocytes (0.1% DMSO final concentration). Medium-containing compounds was refreshed daily for four days. Hepatocytes were fixed with ice-cold methanol and samples were blocked with 10% fetal bovine serum (FBS) in PBS. Samples were incubated with rabbit anti-HSP70 (1:75, StressMarq) in 10% FBS for 1-2 h followed by incubation with secondary goat anti-rabbit AlexaFluor 594 antibody (1:1000, Invitrogen) in 10% FBS for 30 min. Samples were washed with PBS containing 0.05% Tween 20 between different steps. Cells were imaged on the Biotek Cytation and images were analyzed automatically using FIJI software."}, "[2]": {"tested_on": "P. falciparum NF54 female gametocytes", "test": "Dual gamete formation assay, female", "format": "cell-based, Plasmodium falciparum", "conditions": "read-out: IC50 female gametocyte activation", "procedure": "After a 48-h incubation, gamete formation was stimulated by a drop in temperature (from 37 °C to 26 °C), and the addition of xanthurenic acid (2.5 µM). At 20 min after induction, exflagellation was recorded by automated time-lapse microscopy. After data collection, the plate was returned to a 26 °C incubator and incubated for 24 h. Female gamete formation was assessed by live staining with a Cy3-labelled anti-Pfs25 monoclonal antibody (1:2222) and recorded by automated microscopy."}, "[3]": {"test": "8-day Dose Range Finding (DRF) rat study", "format": "in vivo, Wistar Han rats", "source_text": "See the summary of the study design in Supplementary Table 31. Nine-week-old Wistar (Crl:WI (Han)) rats were obtained from Charles River Laboratories (Domaine des Oncins, Saint-Germain-Nuelles, France). […] Animals were examined daily for any altered clinical signs, body weights, and food consumption. Blood samples were taken at different timepoints after the test item administration, and toxicokinetic exposure assessed under the defined experimental conditions and analyzed using Phoenix (version 6.4 and 1.4) (Supplementary Table 32). Measurements included hematology and clinical chemistry measurements. Animals were euthanized and necropsied at the end of the dosing period. At necropsy, major organ systems and tissues were collected and weighed and then examined for gross lesions as well as for microscopic changes."}, "[4]": {"test": "Plasma protein binding, mouse"}}, "note": "“And” between values parts separate entries of the source, which are not always exact repeats. Identical values can stand only once."}
{"compound": "C[C@@H](CNC(=O)[C@H](O)C(C)(C)CO)NC(=O)c1cc(F)c(F)cc1F", "note": "[MMV693183]", "values": [{"measurement": "time to parasitemia below the detection limit", "setting": "P. falciparum 3D7; 40 nM (10x IC50)", "value": "≤ 48", "unit": "h"}, {"measurement": "Average (log parasites +1)", "setting": "P. falciparum 3D7; 24 h", "value": 0.452}, {"measurement": "Average (log parasites +1)", "setting": "P. falciparum 3D7; 48 h", "value": 0.0}, {"measurement": "log (parasites +1)", "setting": "P. falciparum 3D7; 48 h", "value": 0.0}, {"measurement": "parasites", "setting": "P. falciparum 3D7; 48 h", "value": 0}, {"measurement": "Average (log parasites +1)", "setting": "P. falciparum 3D7; 72h", "value": 0.0}, {"measurement": "log (parasites +1)", "setting": "P. falciparum 3D7; 72h", "value": 0.0}, {"measurement": "parasites", "setting": "P. falciparum 3D7; 72h", "value": 0}, {"measurement": "Average (log parasites +1)", "setting": "P. falciparum 3D7; 96h", "value": 0.0}, {"measurement": "log (parasites +1)", "setting": "P. falciparum 3D7; 96h", "value": 0.0}, {"measurement": "parasites", "setting": "P. falciparum 3D7; 96h", "value": 0}, {"measurement": "Average (log parasites +1)", "setting": "P. falciparum 3D7; 120h", "value": 0.0}, {"measurement": "log (parasites +1)", "setting": "P. falciparum 3D7; 120h", "value": 0.0}, {"measurement": "parasites", "setting": "P. falciparum 3D7; 120h", "value": 0}, {"measurement": "efficacy against liver stages", "setting": "[1]", "value": "not efficacious against liver stages"}, {"measurement": "infected hepatocytes (Rep1, Rep2)", "setting": "[1]; log concentration (M) -5", "value": "0.0299 and 0.0223"}, {"measurement": "infected hepatocytes (Rep1, Rep2)", "setting": "[1]; log concentration (M) -5.5", "value": "0.0585 and 0.0696"}, {"measurement": "infected hepatocytes (Rep1, Rep2)", "setting": "[1]; log concentration (M) -7", "value": "0.3352 and 0.4993"}, {"measurement": "infected hepatocytes (Rep1, Rep2)", "setting": "[1]; log concentration (M) -7.5", "value": "0.3658 and 0.5068"}, {"measurement": "IC50", "setting": "[2]", "value": 12, "unit": "nM"}, {"measurement": "cumulative exposure vs predicted human efficacious exposure", "setting": "[3]; 30 mg/kg/day group", "value": "> 30", "unit": "fold"}, {"measurement": "Liver weight", "setting": "[3]; 10 and 30 mg/kg/day", "value": "Liver weight was unchanged"}, {"measurement": "liver histology", "setting": "[3]; 10 and 30 mg/kg/day", "value": "absence of liver microscopic findings"}, {"measurement": "Liver weight", "setting": "[3]; DRF 10 mg/kg/day, Females", "value": 6.6517, "unit": "g"}, {"measurement": "Liver weight", "setting": "[3]; DRF 10 mg/kg/day, Males", "value": 9.7817, "unit": "g"}, {"measurement": "Liver weight", "setting": "[3]; DRF 30 mg/kg/day, Females (two groups)", "value": "6.4437 g and 7.2357 g"}, {"measurement": "Liver weight", "setting": "[3]; DRF 30 mg/kg/day, Males (two groups)", "value": "10.7203 g and 9.7543 g"}, {"measurement": "Liver weight", "setting": "[3]; DRF study, females, 10 mg/kg/day, individual animals", "value": "6.951 g and 7.042 g and 5.962 g"}, {"measurement": "Liver weight", "setting": "[3]; DRF study, females, 30 mg/kg/day (first column headed 30), individual animals, 30 mg/kg/day", "value": "7.24 g and 5.849 g and 6.242 g"}, {"measurement": "Liver weight", "setting": "[3]; DRF study, females, 30 mg/kg/day (second column headed 30), individual animals, 30 mg/kg/day", "value": "7.466 g and 7.43 g and 6.811 g"}, {"measurement": "Liver weight", "setting": "[3]; DRF study, males, 10 mg/kg/day, individual animals", "value": "9.171 g and 9.562 g and 10.612 g"}, {"measurement": "Liver weight", "setting": "[3]; DRF study, males, 30 mg/kg/day (first column headed 30), individual animals, 30 mg/kg/day", "value": "10.621 g and 11.894 g and 9.646 g"}, {"measurement": "Liver weight", "setting": "[3]; DRF study, males, 30 mg/kg/day (second column headed 30), individual animals, 30 mg/kg/day", "value": "10.364 g and 10.082 g and 8.817 g"}, {"measurement": "NOEL", "setting": "[3]; eight days", "value": 30, "unit": "mg/kg/day"}, {"measurement": "decrease in systemic exposure day 7 vs day 1", "setting": "[3]; predominantly males at 30 mg/kg/day", "value": "up to 4 fold"}, {"measurement": "plasma protein binding", "setting": "[4]", "value": 33, "unit": "%"}]}
